Reference: patent EP0821959A2 (priority 1996, dated 1998)

Assays:
[1] = target: muscarinic cholinergic receptors; conditions: 3H-QNB binding assay
m4 receptors = m4 receptors (Homo sapiens, UniProt P08173); assay type: cell-based; conditions: CHO m4 cells treated with pertussis toxin
[2] = target: muscarinic cholinergic receptors; experiment: 3H-oxotremorine-M binding study (oxotremorine-M versus N-methylscopolamine, Freedman et al.); conditions: inhibition of binding of 3H-oxotremorine-M; read-out: inhibition costant (Ki)

Sequence of m4 receptors (P08173 whole entry): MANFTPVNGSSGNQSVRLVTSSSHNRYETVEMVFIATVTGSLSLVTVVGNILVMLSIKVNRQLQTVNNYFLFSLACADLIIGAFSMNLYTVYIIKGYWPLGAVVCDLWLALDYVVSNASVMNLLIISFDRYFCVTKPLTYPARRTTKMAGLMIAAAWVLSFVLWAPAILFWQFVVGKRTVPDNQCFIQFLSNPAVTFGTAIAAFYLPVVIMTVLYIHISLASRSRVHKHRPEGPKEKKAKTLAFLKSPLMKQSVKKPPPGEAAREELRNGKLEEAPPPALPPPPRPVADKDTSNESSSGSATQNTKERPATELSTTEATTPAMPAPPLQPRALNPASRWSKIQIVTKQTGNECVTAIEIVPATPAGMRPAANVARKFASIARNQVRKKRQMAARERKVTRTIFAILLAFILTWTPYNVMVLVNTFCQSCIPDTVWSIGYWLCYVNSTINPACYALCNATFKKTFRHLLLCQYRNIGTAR

CCCCCCOc1nsnc1C1=CCCN(C)C1 [Xanomeline, 3-(4-hexyloxy-1,2,5-thiadiazol-3-yl)-1,2,5,6-tetrahydro-1-methylpyridine]
IC50 [1]: < 1 mM
formation of cAMP (m4 receptors): efficaciously and potently stimulated the formation of cAMP
Ki [2]: 2 nM
